From the NIST ThermoML archive (doi:10.1021/acs.jced.5b00599)

Conditions: Gas, Oscillating disk viscometry

O [water]
Conditions	viscosity [mPa·s]
297.33 K, Mass density=0.092 kg/m3	0.00963
297.76 K, Mass density=0.023 kg/m3	0.009649
298.16 K, Mass density=0.092 kg/m3	0.009654
298.69 K, Mass density=0.129 kg/m3	0.009676
298.99 K, Mass density=0.129 kg/m3	0.009697
299.38 K, Mass density=0.018 kg/m3	0.009722
300.35 K, Mass density=0.018 kg/m3	0.009746
301.55 K, Mass density=0.023 kg/m3	0.009792
310.44 K, Mass density=0.129 kg/m3	0.01008
311.12 K, Mass density=0.023 kg/m3	0.01011
311.13 K, Mass density=0.092 kg/m3	0.0101
311.52 K, Mass density=0.018 kg/m3	0.01013
325.16 K, Mass density=0.092 kg/m3	0.01059
325.62 K, Mass density=0.023 kg/m3	0.01063
326.81 K, Mass density=0.129 kg/m3	0.01064
327.19 K, Mass density=0.018 kg/m3	0.01067
338.27 K, Mass density=0.129 kg/m3	0.01104
338.47 K, Mass density=0.023 kg/m3	0.01107
339.05 K, Mass density=0.018 kg/m3	0.01109
339.49 K, Mass density=0.092 kg/m3	0.01109
352.03 K, Mass density=0.092 kg/m3	0.01154
352.69 K, Mass density=0.018 kg/m3	0.01158
352.79 K, Mass density=0.129 kg/m3	0.01156
352.84 K, Mass density=0.023 kg/m3	0.01158
365.89 K, Mass density=0.092 kg/m3	0.01204
366.46 K, Mass density=0.129 kg/m3	0.01205
366.97 K, Mass density=0.018 kg/m3	0.01208
367.44 K, Mass density=0.023 kg/m3	0.0121
380.14 K, Mass density=0.092 kg/m3	0.01257
380.24 K, Mass density=0.092 kg/m3	0.01257
380.61 K, Mass density=0.129 kg/m3	0.01257
380.86 K, Mass density=0.018 kg/m3	0.0126
380.91 K, Mass density=0.129 kg/m3	0.0126
381.03 K, Mass density=0.023 kg/m3	0.0126
382.98 K, Mass density=0.023 kg/m3	0.01267
384.22 K, Mass density=0.018 kg/m3	0.01273
394.56 K, Mass density=0.092 kg/m3	0.01311
394.75 K, Mass density=0.129 kg/m3	0.0131
394.87 K, Mass density=0.018 kg/m3	0.01313
395.16 K, Mass density=0.023 kg/m3	0.01312
408.37 K, Mass density=0.092 kg/m3	0.01363
408.69 K, Mass density=0.129 kg/m3	0.01365
409.25 K, Mass density=0.023 kg/m3	0.01365
410.22 K, Mass density=0.018 kg/m3	0.0137
422.63 K, Mass density=0.092 kg/m3	0.01418
423.17 K, Mass density=0.129 kg/m3	0.01421
423.35 K, Mass density=0.023 kg/m3	0.01419
423.87 K, Mass density=0.018 kg/m3	0.01423
437.65 K, Mass density=0.092 kg/m3	0.01479
437.93 K, Mass density=0.129 kg/m3	0.01479
438.48 K, Mass density=0.023 kg/m3	0.01478
438.75 K, Mass density=0.018 kg/m3	0.01482
466.44 K, Mass density=0.092 kg/m3	0.01596
466.96 K, Mass density=0.129 kg/m3	0.01598
468.21 K, Mass density=0.018 kg/m3	0.01601
468.74 K, Mass density=0.023 kg/m3	0.01598
496.27 K, Mass density=0.023 kg/m3	0.0171
496.94 K, Mass density=0.092 kg/m3	0.01723
497.01 K, Mass density=0.129 kg/m3	0.01727
497.08 K, Mass density=0.018 kg/m3	0.01723
